Experimental data from patent US11196057B2, “Metal-air cell with performance enhancing additive” (ARIZONA BOARD OF REGENTS ACTING FOR AND ON BEHALF OF …, priority 2010, dated 2021).
Where two headings read alike, the source gives them in different places.

Key:
[1] = pKa values of different proton sources (protic additives); conditions: for pKa (H20): in water; for pKa: water
[2] = aqueous system; cited from earlier work
[3] = Properties of host ionic liquid BDMeIm Tf (gravimetric, Cottrell); format: physicochemical
Experimental: A series of protic additives were added into an ionically conductive medium in order to examine the effects of such additives upon oxygen reduction reaction (“ORR”). An aprotic ionic liquid BdMelm:Tf was used as the host for the additive. A photograph of an experimental setup is provided in FIG. 5A, with FIG. 5B showing a cartoon of a close-up of the measurement tube/chamber. […] See e.g., FIG. 5F. Also, the IL had the benefit of the superacidity of Tf, which minimizes solvent leveling effects. Additional benefits of this dry aprotic IL system include also invariant electrode, high reversibility, and high reactivity, as shown in cyclic voltammagrams (CV) in FIG. 5C and the result of the Kouteeky-Levich ([…]) analysis with respect to the number of electrons per O2 vs. potential in FIG. 5D.

Compound: Cc1nccn1C.O=S(=O)(O)C(F)(F)F [1,2-dimethylimidaozlium triflate]
- pKa (H20) [1]: 7.4

Compound: [O]O [superoxide]
- pKa [2]: about 4.7

Compound: OO [peroxide]
- pKa [2]: 11.63

Compound: CCCCn1cc[n+](C)c1C.O=S(=O)([O-])C(F)(F)F [BDMelm Tf]
- density [3]: about 1.4 g/mL
- oxygen solubility ([3]; measured gravimetrically and through Cottrell): about 2.5 mM

Compound: O.O=S(=O)(O)C(F)(F)F [hydronium triflate]
- pKa (H20) [1]: −1.7

Compound: OCC(F)(F)F [2,2,2-trifluoroethanol]
- pKa [1]: 12.5

Compound: CCCCN=C(N(C)C)N(C)C [2-butyl-1,1,3,3-tetramethylguanidinium triflate]
- pKa [1]: 13.6

Compound: CCN(C)CC.O=S(=O)(O)C(F)(F)F [n,n-diethyl-n-methylammonium triflate]
- pKa (H20) [1]: 10.6
